From patent US11053204B2, “Pyrimidinyloxy benzene derivatives as herbicides” (FMC Corporation, priority 2015, dated 2021)

Assays:
Format in all cases: in vivo
[1] = test system: Italian ryegrass (Lolium multiflorum); assay: Test A postemergence, visual injury rating; details: 0 is no effect, 100 is complete control
Procedure, shortened: (§1)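 Compounds in non-phytotoxic solvent with surfactant applied as soil spray preemergence, or postemergence to plants 2-10 cm at one- to two-leaf stage, in loam/sand. After approximately 10 days in greenhouse, injury rated visually versus untreated controls, 0 (no effect) to 100 (complete control).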

corn (Zea mays) = assay: Test A postemergence, visual injury rating; details: 0 is no effect, 100 is complete control
Procedure, shortened: as §1

[2] = test system: giant foxtail (Setaria faberii); assay: Test A postemergence, visual injury rating; details: 0 is no effect, 100 is complete control
Procedure, shortened: as §1

kochia (Kochia scoparia) [3] = assay: Test A postemergence, visual injury rating; details: 0 is no effect, 100 is complete control
Procedure, shortened: as §1

[4] = test system: pigweed (Amaranthus retroflexus); assay: Test A postemergence, visual injury rating; details: 0 is no effect, 100 is complete control
Procedure, shortened: as §1

[5] = test system: ragweed (common ragweed, Ambrosia elatior); assay: Test A postemergence, visual injury rating; details: 0 is no effect, 100 is complete control
Procedure, shortened: as §1

[6] = test system: wheat (Triticum aestivum); assay: Test A postemergence, visual injury rating; details: 0 is no effect, 100 is complete control
Procedure, shortened: as §1

[7] = test system: barnyardgrass (Echinochloa crus-galli); assay: Test B flooded paddy test, plant response rating; details: 250 g ai/ha; Flood; scale of 0 to 100 where 0 is no effect and 100 is complete control; 13 to 15 days
Procedure, shortened: (§2)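 Under a constant 3 cm flood, test compounds went directly into the paddy water. Following 13 to 15 days of greenhouse growth, treated species and controls were compared by eye.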

[8] = test system: ducksalad (Heteranthera limosa); assay: Test B flooded paddy test, plant response rating; details: 250 g ai/ha; Flood; scale of 0 to 100 where 0 is no effect and 100 is complete control; 13 to 15 days
Procedure, shortened: as §2

rice (Oryza sativa) = assay: Test B flooded paddy test, plant response rating; details: 250 g ai/ha; Flood; scale of 0 to 100 where 0 is no effect and 100 is complete control; 13 to 15 days
Procedure, shortened: as §2

[9] = test system: sedge, umbrella (small-flower umbrella sedge, Cyperus difformis); assay: Test B flooded paddy test, plant response rating; details: 250 g ai/ha; Flood; scale of 0 to 100 where 0 is no effect and 100 is complete control; 13 to 15 days
Procedure, shortened: as §2

[10] = test system: barnyardgrass (Echinochloa crus-galli); assay: Test C postemergence, plant response rating; details: for Plant response rating, Barnyardgrass: scale 0 to 100; for Barnyardgrass plant response rating: scale 0 to 100 (0 no effect, 100 complete control)
Procedure, shortened: (§3)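 Pre-emergence: seeds sown in loam soil–sand blend or silt loam and sprayed with test chemicals in a non-phytotoxic solvent mixture with surfactant. Post-emergence: plants 2 to 18 cm (1- to 4-leaf stage) in peat-based potting medium, same formulation. Greenhouse 13 to 15 d; visual rating 0 (no effect) to 100 (complete control) versus controls.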

kochia (Kochia scoparia) [11] = assay: Test C postemergence, plant response rating; details: for Plant response rating, Kochia: scale 0 to 100; for Kochia plant response rating: scale 0 to 100 (0 no effect, 100 complete control)
Procedure, shortened: as §3

[12] = test system: morningglory (Ipomoea coccinea); assay: Test C postemergence, plant response rating; details: for Plant response rating, Morningglory: scale 0 to 100; for Morningglory plant response rating: scale 0 to 100 (0 no effect, 100 complete control)
Procedure, shortened: as §3

[13] = test system: oilseed rape (Brassica napus); assay: Test C postemergence, plant response rating; details: for Plant response rating, Oilseed Rape: scale 0 to 100; for Oilseed Rape plant response rating: scale 0 to 100 (0 no effect, 100 complete control)
Procedure, shortened: as §3

[14] = test system: ragweed (common ragweed, Ambrosia elatior); assay: Test C postemergence, plant response rating; details: for Plant response rating, Ragweed: scale 0 to 100; for Ragweed plant response rating: scale 0 to 100 (0 no effect, 100 complete control)
Procedure, shortened: as §3

[15] = test system: velvetleaf (Abutilon theophrasti); assay: Test C postemergence, plant response rating; details: for Plant response rating, Velvetleaf: scale 0 to 100; for Velvetleaf plant response rating: scale 0 to 100 (0 no effect, 100 complete control)
Procedure, shortened: as §3

[16] = test system: waterhemp (common waterhemp, Amaranthus rudis); assay: Test C postemergence, plant response rating; details: for Plant response rating, Waterhemp: scale 0 to 100; for Waterhemp plant response rating: scale 0 to 100 (0 no effect, 100 complete control)
Procedure, shortened: as §3

O=C(OCCC(F)(F)F)c1c(Br)cccc1Oc1ncc(Br)cn1 [Compound 33]
Ryegrass, Italian plant response rating (0 to 100 scale) ([1]; 125 g ai/ha): 30
Ryegrass, Italian plant response rating (0 to 100 scale) ([1]; 500 g ai/ha): 80
Corn plant response rating (0 to 100 scale) (corn (Zea mays); 125 g ai/ha): 30
Corn plant response rating (0 to 100 scale) (corn (Zea mays); 500 g ai/ha): 90
Foxtail, Giant plant response rating (0 to 100 scale) ([2]; 125 g ai/ha): 100
Foxtail, Giant plant response rating (0 to 100 scale) ([2]; 500 g ai/ha): 100
Kochia plant response rating (0 to 100 scale) (kochia (Kochia scoparia) [3]; 125 g ai/ha): 100
Kochia plant response rating (0 to 100 scale) (kochia (Kochia scoparia) [3]; 500 g ai/ha): 100
Pigweed plant response rating (0 to 100 scale) ([4]; 125 g ai/ha): 100
Pigweed plant response rating (0 to 100 scale) ([4]; 500 g ai/ha): 100
Ragweed plant response rating (0 to 100 scale) ([5]; 125 g ai/ha): 30
Ragweed plant response rating (0 to 100 scale) ([5]; 500 g ai/ha): 40
Wheat plant response rating (0 to 100 scale) ([6]; 125 g ai/ha): 20
Wheat plant response rating (0 to 100 scale) ([6]; 500 g ai/ha): 60
Plant response rating, Barnyardgrass [7]: 0
Plant response rating, Ducksalad [8]: 80
Plant response rating, Rice (rice (Oryza sativa)): 0
Plant response rating, Sedge, Umbrella [9]: 95
Plant response rating, Barnyardgrass ([10]; 16 g ai/ha): 5
Plant response rating, Barnyardgrass ([10]; 31 g ai/ha): 5
Barnyardgrass plant response rating ([10]; 62 g ai/ha): 10
Barnyardgrass plant response rating ([10]; 125 g ai/ha): 25
Plant response rating, Kochia (kochia (Kochia scoparia) [11]; 16 g ai/ha): 90
Plant response rating, Kochia (kochia (Kochia scoparia) [11]; 31 g ai/ha): 95
Kochia plant response rating (kochia (Kochia scoparia) [11]; 62 g ai/ha): 95
Kochia plant response rating (kochia (Kochia scoparia) [11]; 125 g ai/ha): 95
Plant response rating, Morningglory ([12]; 16 g ai/ha): 55
Plant response rating, Morningglory ([12]; 31 g ai/ha): 65
Morningglory plant response rating ([12]; 62 g ai/ha): 75
Morningglory plant response rating ([12]; 125 g ai/ha): 65
Plant response rating, Oilseed Rape ([13]; 16 g ai/ha): 35
Plant response rating, Oilseed Rape ([13]; 31 g ai/ha): 45
Oilseed Rape plant response rating ([13]; 62 g ai/ha): 55
Oilseed Rape plant response rating ([13]; 125 g ai/ha): 95
Plant response rating, Ragweed ([14]; 16 g ai/ha): 40
Plant response rating, Ragweed ([14]; 31 g ai/ha): 30
Ragweed plant response rating ([14]; 62 g ai/ha): 50
Ragweed plant response rating ([14]; 125 g ai/ha): 60
Plant response rating, Velvetleaf ([15]; 16 g ai/ha): 25
Plant response rating, Velvetleaf ([15]; 31 g ai/ha): 50
Velvetleaf plant response rating ([15]; 62 g ai/ha): 65
Velvetleaf plant response rating ([15]; 125 g ai/ha): 75
Plant response rating, Waterhemp ([16]; 16 g ai/ha): 90
Plant response rating, Waterhemp ([16]; 31 g ai/ha): 80
Waterhemp plant response rating ([16]; 62 g ai/ha): 100
Waterhemp plant response rating ([16]; 125 g ai/ha): 100
